One compound from patent US20230123534A1, “LIPIDS FOR LIPID NANOPARTICLE DELIVERY OF ACTIVE AGENTS” (Acuitas Therapeutics, Inc., priority 2019, published 2023) can be followed below.

The structures appear in SMILES notation.

Data set [1] can be described thus: Determination of pKa of formulated lipids (TNS fluorescence assay in lipid nanoparticles). Conditions: Table 3; cationic lipid formulated in LNP, TNS fluorescence assay; read-out: pKa. It counts as physicochemical. On the procedure:
As described elsewhere, the pKa of formulated cationic lipids is correlated with the effectiveness of LNPs for delivery of nucleic acids (see Jayaraman et al, Angewandte Chemie, International Edition (2012), 51(34), 8529-8533; Semple et al, Nature Biotechnology 28, 172-176 (2010)). […] Lipid nanoparticles comprising cationic lipid/DSPC/cholesterol/PEG-lipid (50/10/38.5/1.5 mol%) in PBS at a concentration of 0.4 mM total lipid were prepared using the in-line process as described in Example 1. TNS was prepared as a 100 µM stock solution in distilled water. Vesicles were diluted to 24 µM lipid in 2 mL of buffered solutions containing, 10 mM HEPES, 10 mM MES, 10 mM ammonium acetate, 130 mM NaCl, where the pH ranged from 2.5 to 11. An aliquot of the TNS solution was added to give a final concentration of 1 µM and following vortex mixing fluorescence intensity was measured at room temperature in a SLM Aminco Series 2 Luminescence Spectrophotometer using excitation and emission wavelengths of 321 nm and 445 nm. A sigmoidal best fit analysis was applied to the fluorescence data and the pKa was measured as the pH giving rise to half-maximal fluorescence intensity.

Data set [2] deals with luciferase expression in the liver. In words: In vivo luciferase mRNA expression rodent model (liver luciferase after tail vein injection of FLuc mRNA lipid nanoparticles). Set-up: species or system mice. Conditions: 0.5 mg mRNA/kg, liver 4 hours after administration, LNP 50% cationic lipid/10% DSPC/38.5% cholesterol/1.5% PEG-DMA or 47.5/10/40.7/1.8.

`CCCCCCCCCCN(C(=O)CCCN(C)C)C(CCCCCCCCC(=O)OC(CCCCCC)CCCCCC)CCCCCCCCC(=O)OC(CCCCCC)CCCCCC` [Compound I-37, DI(TRIDECAN-7-YL) 10-(N-DECYL-4-(DIMETHYLAMINO)BUTANAMIDO)NONADECANEDIOATE]: the pKa (usually the negative logarithm of the acid dissociation constant) in data set [1] was found to be 6.3. The “Liver Luc @ 0.5 mg/kg (ng luc/g liver)” value in data set [2] amounted to 15234 ± 5248 ng luc/g liver.
